Key:
[1] = Concentration required to inhibit proliferation in a mixture of human lymphocytes using mixed lymphocyte reaction test; type: functional, cell-based
[2] = target: Dihydroorotate dehydrogenase (quinone), mitochondrial (Homo sapiens, UniProt Q02127); assay: Inhibition of human recombinant dihydroorotate dehydrogenase (DHODase)
Dihydroorotate dehydrogenase (quinone), mitochondrial, sequence (Q02127 whole entry): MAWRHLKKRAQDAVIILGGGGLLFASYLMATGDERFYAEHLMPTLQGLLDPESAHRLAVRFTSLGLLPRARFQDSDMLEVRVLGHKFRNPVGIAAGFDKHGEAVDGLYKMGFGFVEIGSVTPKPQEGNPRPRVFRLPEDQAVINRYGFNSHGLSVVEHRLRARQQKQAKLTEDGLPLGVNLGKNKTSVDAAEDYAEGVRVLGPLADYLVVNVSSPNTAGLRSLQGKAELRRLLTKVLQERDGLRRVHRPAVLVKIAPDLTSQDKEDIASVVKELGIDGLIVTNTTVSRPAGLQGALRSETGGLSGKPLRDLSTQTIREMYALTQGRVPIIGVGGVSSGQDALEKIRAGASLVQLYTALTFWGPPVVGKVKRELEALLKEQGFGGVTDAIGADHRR

Ki [2] [nM]	SMILES	IC50 [1] [nM]
34	O=C(O)c1c2c(nc3ccc(F)cc13)-c1ccc(-c3ccccc3F)cc1CC2	40
55	COc1ccc(-c2ccc3c(c2)CCc2c-3nc3ccc(F)cc3c2C(=O)O)cc1	60
160	COc1cccc(-c2ccc3c(n2)CCc2c-3nc3ccc(F)cc3c2C(=O)O)c1	300
> 1000	O=C(O)c1c2c(nc3ccc(F)cc13)-c1cc(-c3ccccc3)ccc1CC2	> 5000
> 180	O=C(O)c1c2c(nc3ccc(F)cc13)-c1ccc(-c3nccs3)cc1CC2	> 5000
218	Cc1ccc(-c2ccc3c(c2)CSc2c-3nc3ccc(F)cc3c2C(=O)O)cc1	350
37	Cc1cccc(-c2ccc3c(c2)SCc2c-3nc3ccc(F)cc3c2C(=O)O)c1	14
–	Cc1c(-c2ccc(-c3ccccc3F)cc2)nc2ccc(F)cc2c1C(=O)O [BREQUINAR SODIUM]	15
59	Cc1cccc(-c2ccc3c(c2)CCc2c-3nc3ccc(F)cc3c2C(=O)O)c1	60
31	O=C(O)c1c2c(nc3ccc(C(F)(F)F)cc13)-c1ccc(-c3ccccc3)cc1CC2	52
40	Cc1ccc(-c2ccc3c(c2)CCc2c-3nc3ccc(F)cc3c2C(=O)O)cc1	28
370	O=C(O)c1c2c(nc3ccc(F)cc13)-c1ccc(-c3ccc(C(F)(F)F)cc3)cc1CC2	850
40	O=C(O)c1c2c(nc3ccc(F)cc13)-c1ccc(-c3ccccc3C(F)(F)F)cc1CC2	50
135	Cc1cccc(-c2ccc3c(c2)CSc2c-3nc3ccc(F)cc3c2C(=O)O)c1	170
25	Cc1ccccc1-c1ccc2c(c1)CSc1c-2nc2ccc(F)cc2c1C(=O)O	65
206	O=C(O)c1c2c(nc3ccc(F)cc13)-c1ccc(-c3ccccc3)cc1[S+]([O-])C2 (stereo unspecified)	240
43	O=C(O)c1c2c(nc3ccc(F)cc13)-c1ccc(-c3cccc(C(F)(F)F)c3)cc1CC2	18
> 182	O=C(O)c1c2c(nc3ccc(F)cc13)-c1sc(-c3ccccc3)cc1CC2	> 10000
81	Cc1cccc(-c2ccc3c(n2)CCc2c-3nc3ccc(F)cc3c2C(=O)O)c1	180
25	COc1cccc(-c2ccc3c(c2)CCc2c-3nc3ccc(F)cc3c2C(=O)O)c1	10
> 204	O=C(O)c1c2c(nc3ccc(F)cc13)-c1ccc(-c3ccccc3)cc1CO2	380

SMILES	Ki [2] [nM]	IC50 [1] [nM]
O=C(O)c1c2c(nc3ccc(F)cc13)-c1ccc(-c3ccccc3)cc1S(=O)(=O)C2	139	8500
O=C(O)c1c2c(nc3ccc(F)cc13)-c1cccc(Oc3ccccc3)c1CC2	962	> 5000
O=C(O)c1c2c(nc3ccc(F)cc13)-c1ccc(-c3ccccc3)nc1CC2	409	100
O=C(O)c1c2c(nc3ccc(F)cc13)-c1ccc(-c3ccsc3)cc1CC2	52	170
O=C(O)c1c2c(nc3ccc(F)cc13)-c1ccc(-c3ccccc3)cc1SC2	17	16
Cc1ccccc1-c1ccc2c(c1)SCc1c-2nc2ccc(F)cc2c1C(=O)O	27	0.6
O=C(O)c1c2c(nc3ccc(F)cc13)-c1ccc(-c3ccoc3)cc1CC2	190	280
O=C(O)c1c2c(nc3ccc(F)cc13)-c1ccc(-c3ccccc3)cc1CS2	170	310
O=C(O)c1c2c(nc3ccc(F)cc13)-c1cccc(-c3ccccc3)c1CC2	300	> 5000
Cc1ccccc1-c1ccc2c(c1)CCc1c-2nc2ccc(F)cc2c1C(=O)O	10	30
O=C(O)c1c2c(nc3ccc(F)cc13)-c1ccc(-c3ccccc3)cc1OC2	48	220
Cc1ccc(-c2ccc3c(c2)SCc2c-3nc3ccc(F)cc3c2C(=O)O)cc1	13	50
COc1ccccc1-c1ccc2c(c1)CCc1c-2nc2ccc(F)cc2c1C(=O)O	20	50
O=C(O)c1c2c(nc3ccc(F)cc13)-c1ccc(-c3ccccc3)cc1CC2	8.3	30
O=C(O)c1c2c(nc3ccc(F)cc13)-c1cnc(-c3ccccc3)nc1CC2	380	600

Source: ChEMBL document CHEMBL1130739 (Bioorg Med Chem Lett, 1998)
